Results from patent US20040081682A1, “Transdermal system (tds) that contain inhibitors of phosphodiesterase lV” (priority 2000, published 2004).

Test: Pharmacokinetic study of humans (transdermal TDS E vs. intravenous infusion, serum RIA)
Details: human, in vivo
Experimental: Pharmacokinetic Study of Humans
The above-described formulation E was tested on twelve healthy males at the age of 20 to 42 years with normal body weight, whereby for 72 hours in each case, three transdermal formulations of 10 cm^2 each with 5 mg of (R)-(−)-5-(4-methoxyphenyl-3-propoxy)-5-methyl-2-oxazolidinone were simultaneously applied on the lower back area. After 72 hours, the transdermal formulation was removed and within one week of washing-out time, the concentration of the active ingredient in the serum was determined per RIA. The measured serum levels of the active ingredient produced an average transdermal substance flow of 0.49±0.7 μg/cm^2/h, at maximum serum levels of 0.88 ng/ml in the time interval of 29±10 hours.
Based on the pronounced plateau phase, which was achieved after the administration of the TDS, at the time of the reduction of TDS after three days, it was still possible to measure mesopram concentrations in the range of 65±18% of the maximum levels. […] The AUC values as well as other pharmacokinetic parameters are found in Table 3. In a comparison test with intravenous administration of a total of 0.2 mg of (R)-(−)-5-(4-methoxyphenyl-3-propoxy)-5-methyl-2-oxazolidinone within one hour, a multiple of higher serum levels was measured that was […]. One hour after the infusion was completed, the mean serum levels dropped to 1.15±0.44 ng·ml·l. Later on, the serum levels dropped off four hours after completion of the infusion to achieve a level of 0.39±0.17 ng·ml·l, after 8 hours 0.17±0.09 ng·ml·l, and after 24 hours 0.08±0.08 ng·ml·l. The essential pharmacokinetic parameters after i.v. administration of mesopram are depicted in Tab. 3. The comparison test with infusion was performed on the same test subjects as the transdermal administration. […]

(R)-(−)-5-(4-methoxyphenyl-3-propoxy)-5-methyl-2-oxazolidinone [mesopram]
Cl (clearance): 5.1 ± 1.8
f (absolute bioavailability): 100%
ιη (half-life): 2.5 ± 0.9 h
